Reference: patent US7598418B2, “Amide derivatives” (Institute of Medicinal Molecular Design, Inc., priority 2002, dated 2009)

The molecules below were run on Jurkat cells (assay: Jurkat cell proliferation, MTS method: compound alone or combined with bleomycin). Conditions: compound plus bleomycin 5 μg/ml or 10 μg/ml, 36 hours, survival rate vs DMSO control.
Type: cell-based
Design: key: ┌++┘ indicates observation of remarkable enhancement; ┌+┘ indicates moderated enhancement
Experimental: By using aforementioned synthetic compounds, effects on proliferation of Jurkat cells by sole administration and inhibitory effects on cell proliferation by administration in combination with bleomycin were examined. Materials and methods are as follows. Jurkat cells obtained from Dainippon Pharmaceutical Co. Ltd. were inoculated at about 10,000 cells per well in a 96 well culture plate, and incubated in 10% bovine fetal serum (Irvine Scientific) supplemented with RPMI1640 (ICN) medium in 5% CO2 incubator at 37° C. […] 36 hours after the incubation, the number of living cells was counted by the MTS method.
More specifically, 20 μl of CellTiter96™ AQueous One Solution (Promega) was added per one well, and after the cells were incubated for additional one hour, an absorbance at 490 nm was measured by using a microplate reader. The same culture added with DMSO as a solvent at final concentration of 0.25% was used as a control. The number of cells in the control was considered as 100% survival rate, and for each compound, survival rates by sole administration or a combined administration were calculated. […] In the table, ┌++┘ indicates observation of remarkable enhancement, ┌+┘ indicates moderated enhancement.

Question: Which “Activity (enhancement of inhibitory effect on cell proliferation in combination with bleomycin)” value does the source give for `Cc1ccc(S(=O)(=O)Oc2cccc3c(S(=O)(=O)Nc4ccccc4)cccc23)cc1` [Compound 1-24, N-Phenyl-5-{[(4-methylphenyl)sulfonyl]oxy}naphthalene-1-sulfonamide] here?
Answer: Its value is “++”.

Question: Which “Activity (enhancement of inhibitory effect on cell proliferation in combination with bleomycin)” value does the source give for `CC(=O)Oc1cccc2cc(S(=O)(=O)NCc3ccccc3)ccc12` [Compound 3-1, 5-Acetyloxy-N-benzylnaphthalene-2-sulfonamide] here?
Answer: The value was “+”.

Question: With `Cc1ccc(S(=O)(=O)Oc2cccc3c(S(=O)(=O)NCC4CCCCC4)cccc23)cc1` [Compound 1-23, N-Cyclohexylmethyl-5-{[(4-methylphenyl)sulfonyl]oxy}naphthalene-1-sulfonamide] as the molecule, how does the “Activity (enhancement of inhibitory effect on cell proliferation in combination with bleomycin)” value read?
Answer: The value was “+”.

Question: For `Nc1cccc2c(C(=O)NCc3ccccc3)cccc12` [Compound 11-1, 5-Amino-N-benzylnaphthalene-1-carboxamide], which “Activity (enhancement of inhibitory effect on cell proliferation in combination with bleomycin)” value is on record?
Answer: The value was “+”.

Question: Which “Activity (enhancement of inhibitory effect on cell proliferation in combination with bleomycin)” value does the source give for `CC(C)(C)c1ccc(CNS(=O)(=O)c2ccc3c(N)cccc3c2)cc1` [Compound 6-2, 5-Amino-N-[4-(tert-butyl)benzyl]naphthalene-2-sulfonamide] here?
Answer: Its value is “+”.

Question: Which “Activity (enhancement of inhibitory effect on cell proliferation in combination with bleomycin)” value does the source give for `Cc1ccc(S(=O)(=O)Oc2cccc3c(S(=O)(=O)NC(C)c4ccccc4)cccc23)cc1` (stereo not shown) [Compound 1-26, N-(1-Phenethyl)-5-{[(4-methylphenyl)sulfonyl]oxy}naphthalene-1-sulfonamide] here?
Answer: Its value is “++”.

Question: `O=[N+]([O-])c1cccc(CNS(=O)(=O)c2ccc3c(O)cccc3c2)c1` [Compound 4-3, N-(3-Nitrobenzyl)-5-hydroxynaphthalene-2-sulfonamide] was tested. Which “Activity (enhancement of inhibitory effect on cell proliferation in combination with bleomycin)” value did it give?
Answer: The value was “+”.

Question: How did the “Activity (enhancement of inhibitory effect on cell proliferation in combination with bleomycin)” value turn out when `COc1cccc(CNS(=O)(=O)c2cccc3c(O)cccc23)c1OC` [Compound 2-13, N-(2,3-Dimethoxylbenzyl)-5-hydroxynaphthalene-1-sulfonamide] was run?
Answer: Its value is “+”.

Question: `Cc1ccc(S(=O)(=O)Oc2cccc3c(S(=O)(=O)NCc4ccc(C(F)(F)F)cc4)cccc23)cc1` [Compound 1-9, N-[4-(Trifluoromethyl)benzyl]-5-{[(4-methylphenyl)sulfonyl]oxy}naphthalene-1-sulfonamide] was tested. Which “Activity (enhancement of inhibitory effect on cell proliferation in combination with bleomycin)” value did it give?
Answer: The value was “++”.

Question: `CC(C)(C)c1ccc(CNS(=O)(=O)c2cccc3cc(N)ccc23)cc1` [Compound 8-2, 6-Amino-N-[4-(tert-butyl)benzyl]naphthalene-1-sulfonamide] was tested. Which “Activity (enhancement of inhibitory effect on cell proliferation in combination with bleomycin)” value did it give?
Answer: Its value is “+”.
